According to patent EP1705169A2, “Triphenylalkene derivatives and their use as selective estrogen receptor modulators” (priority 1999, dated 2001):
Read-outs that look alike come from different tables or passages of the source.

System: MCF-7 cells
Experiment: cells
Details: for inhibition at 1 µM / Emax / cytotoxicity at 10 µM: Homo sapiens, MCF7, 96 h; for inhibition at 1 µM: read-out: Antagonism at 1 µM (% of full antagonism); for Emax: read-out: Maximal Agonism (% of E2); for Kill of MCF-7 cells (in words): highest investigated concentration (10 µM), Table 2; for Hormonal activity (in words): summary statement referring to Table 2; for Estrogenic and antiestrogenic action (in words): summary statement referring to Tables 2, 3 and 4
Procedure: For experiments involving hormone or anti-hormone treatment, the cells in exponential growth phase were precultivated in the absence of estradiol for one day. […] After the incubation period the medium was removed. The exposure to study drugs was started immediately by adding fresh medium with 5 % stripped serum. Half of the cells were grown with estradiol, half without estradiol. Study compounds (dissolved in ethanol in 0.01 M concentration and diluted with the growth medium as appropriate) were added. The final concentrations of the compounds were 1,10, and 100 nM, and 1 and 10 µM. The cells were incubated for four days.
This method allows evaluation of estrogenicity based on the ability of the compounds to stimulate the growth of the estrogen-dependent cells in the absence of estradiol. Estrogenicity was estimated by comparing the maximal growth stimulus (at any concentration) of study compound as per cent from growth stimulus by estradiol (100 % stimulus). […] At high concentrations molecules may also show toxicity. Toxicity was estimated as the fraction of dead cells (i.e. 100 % means that all cells have died during the exposure).

[1] = read-out: Maximal Cell Kill (% fraction of dead cells), With estradiol (E2), toxicity at 10 µmol/l, 100 = all cells dead
[2] = read-out: Maximal Cell Kill (% fraction of dead cells), Without estradiol (E2), toxicity at 10 µmol/l, 100 = all cells dead

SMILES | inhibition at 1 µM [%] | Emax [%] | cytotoxicity at 10 µM [1] [%] | cytotoxicity at 10 µM [2] [%] | cytotoxicity at 10 µM (read-out: Maximal Cell Kill (% fraction of dead cells)) [%] | Kill of MCF-7 cells (in words) | Hormonal activity (in words) | Estrogenic and antiestrogenic action (in words)
OCCOc1ccc(/C(=C(/CCCl)c2ccccc2)c2ccccc2)cc1 [FC-1271a, 2-[4-(4-chloro-1,2-diphenyl-but-1-enyl)phenoxy]ethanol, reference compound] | 21 | 23 | 80 | 50 |  |  |  | 
CCCCN(C)C(=O)CCCCCCCCCC[C@@H]1Cc2cc(O)ccc2[C@H]2CC[C@]3(C)[C@@H](O)CC[C@H]3[C@H]12 [ICI 164,384, reference compound] | 100 | 9 |  |  | 100 |  |  | 
CN(C)CCOc1ccc(/C(=C(\CCCl)c2ccccc2)c2ccc(F)cc2)cc1 [No. 2, (Z)-(2-{4-[4-Chloro-1-(4-fluorophenyl)-2-phenylbut-1-enyl]phenoxy}ethyl)-dimethylamine] | 29 | 100 | 100 | 32 |  |  |  | 
CN(C)CCOc1ccc(/C(=C(/CCCl)c2ccc(Cl)cc2)c2ccc(Cl)cc2)cc1 [No. 4, (E)-(2-{4-[4-Chloro-1,2-bis(4-chlorophenyl)but-1-enyl]phenoxy}ethyl)-dimethylamine] | 10 | 10 | 100 | 90 |  |  |  | 
CN(C)CCOc1ccc(/C(=C(\CCCl)c2ccc(Cl)cc2)c2ccc(Cl)cc2)cc1 [No. 5, (Z)-(2-{4-[4-Chloro-1,2-bis(4-chlorophenyl)but-1-enyl]phenoxy}ethyl)-dimethylamine] | 31 | 11 | 100 | 100 |  |  |  | 
OCCOc1ccc(/C(=C(/CCCl)c2ccccc2)c2ccc(F)cc2)cc1 [No. 8, (E)-2-{4-[4-Chloro-2-phenyl-1-(4-fluorophenyl)but-1-enyl]phenoxy} ethanol] | 92 | 31 | 52 | 2 |  |  |  | 
OCCOc1ccc(/C(=C(/CCCl)c2ccc(Cl)cc2)c2ccc(Cl)cc2)cc1 [No. 9, (E)-2-{4-[4-Chloro-1,2-bis(4-chlorophenyl)but-1-enyl]phenoxy}ethanol] | 9 | 14 | 62 | 45 |  |  |  | 
OCCOc1ccc(C(=C(CCCl)c2ccccc2)c2ccc(OCCO)cc2)cc1 [No. 16, 2-(4-{4-Chloro-1-[4-(2-hydroxyethoxy)phenyl]-2-phenyl-but-1-enyl}phenoxy)-1-ethanol] | 23 | 22 | 96 | 90 |  | kill MCF-7 cells (human breast cancer cells) effectively | weak hormonal activity | 
OCCOc1ccc(/C(=C(/CCCl)c2ccccc2)c2ccc(Cl)cc2)cc1 [No. 17, (E)-2-{4-[4-Chloro-2-phenyl-1-(4-chlorophenyl)but-1-enyl]phenoxy} ethanol] | 17 | 0 | 38 | 44 |  |  |  | 
OCCOc1cccc(/C(=C(/CCCl)c2ccccc2)c2ccccc2)c1 [No. 18, (Z)-2-[3-(4-Chloro-1,2-diphenyl-but-1-enyl)phenoxy]ethanol] | 1 |  | 40 | 10 |  |  |  | weak estrogenic and no antiestrogenic action
CN(C)CCOc1ccc(/C(=C(/CCCl)c2ccc(Cl)cc2)c2ccccc2)cc1 [No. 23, (Z)-(2-{4-[4-Chloro-2-(4-chlorophenyl)-1-phenylbut-1-enyl]phenoxy}ethyl)-dimethylamine] | 5 | 14 | 93 | 89 |  |  |  | 
CN(C)CCOc1ccc(/C(=C(\CCCl)c2ccc(Cl)cc2)c2ccccc2)cc1 [No. 24, (E)-(2-{4-[4-Chloro-2-(4-chlorophenyl)-1-phenylbut-1-enyl]phenoxy}ethyl)-dimethylamine] | 4 | 46 | 98 | 89 |  |  |  | 
CN(C)CCOc1ccc(/C(=C(/CCCl)c2ccc(F)cc2)c2ccccc2)cc1 [No. 25, (Z)-(2-{4-[4-Chloro-2-(4-fluorophenyl)-1-phenylbut-1-enyl]phenoxy}ethyl)-dimethylamine] | 6 | 17 | 27 | 42 |  |  |  | weak estrogenic and no antiestrogenic action
COc1ccc(/C(=C(\CCCl)c2ccc(Cl)cc2)c2ccc(OCCN(C)C)cc2)cc1 [No. 26, (Z)-(2-{4-[4-Chloro-2-(4-chlorophenyl)-1-(4-methoxyphenyl)but-1-enyl]phenoxy}-ethyl)dimethylamine] | 11 | 0 | 98 | 97 |  | kill MCF-7 cells (human breast cancer cells) effectively | weak hormonal activity | 
COc1ccc(/C(=C(/CCCl)c2ccc(Cl)cc2)c2ccc(OCCN(C)C)cc2)cc1 [No. 27, (E)-(2-{4-[4-Chloro-2-(4-chlorophenyl)-1-(4-methoxyphenyl)but-1-enyl]phenoxy}-ethyl)dimethylamine] | 5 | 0 | 100 | 99 |  | kill MCF-7 cells (human breast cancer cells) effectively | weak hormonal activity | 
OCCOc1ccc(/C(=C(/CCCl)c2ccccc2)c2cccc(O)c2)cc1 [No. 34, (E)-3-{4-Chloro-1-[4-(2-hydroxyethoxy)phenyl]-2-phenyl-but-1-enyl}-phenol] | 0 | 0 | 0 | 0 |  |  |  | 
COc1ccc(/C(=C(\CCCl)c2ccc(Cl)cc2)c2ccc(OCCO)cc2)cc1 [No. 37, (Z)-2-{4-[4-Chloro-2-(4-chlorophenyl)-1-(4-methoxyphenyl)but-1-enyl]-phenoxy} ethanol] | 0 | 4 | 41 | 39 |  |  |  | 
OCCOc1ccc(/C(=C(/CCCl)c2ccc(O)cc2)c2ccccc2)cc1 [No. 42, (Z)-4-{1-(2-Chloroethyl)-2-[4-(2-hydroxyethoxy)phenyl]-2-phenylvinyl}phenol] | 13 | 9 | 54 | 23 |  |  |  | 
OCCOc1ccc(/C(=C(\CCCl)c2ccc(O)cc2)c2ccccc2)cc1 [No. 43, (E)-4-{1-(2-Chloroethyl)-2-[4-(2-hydroxyethoxy)phenyl]-2-phenylvinyl}phenol] | 6 | 78 | 22 | 80 |  |  |  | 
